Reference: US20040009973A1, “Novel potassium channels modulators” (4SC AG, priority 2002, published 2004)

Biological target: T1, BK potassium channel, cloned hSlo (α-hSlo and β-bSlo) in CHO cells (Homo sapiens, UniProt Q12791)
T1 construct: expressed in transfected cells; host or cells: CHO cells, permanently transfected
Assay: Em-Assay: membrane potential with voltage sensitive dye DiBAC(4)3, fluorescence plate reader
Assay type: cell-based
Conditions: compound 50 μM; NS004 25 or 50 μM; hSlo transfected CHO cells; change in DiBAC(4)3 fluorescence intensity
Excerpt: The large conductance, voltage-dependent and Ca^2+-activated potassium channel BK is a potassium selective ion channel and belongs to the subfamily of KCa channels. Four BK alpha-subunits form a functional channel that can be regulated by intracellular Ca^2+ concentration, membrane voltage, and other mechanisms like phosphorylation states or beta subunits. To test the biological activity of the compounds, we applied two different techniques, a fluorescence based assay using a voltage sensitive dye (Em-Assay) as well as exploiting electrophysiological methods.
CHO cells permanently transfected with cloned hSlo (α-hSlo and β-bSlo), yielding typical BK potassium currents (Zhou et al., Pflügers Arch., 436: 725-734 (1998), were used for the evaluation of compound activity. Activation or inhibition of BK channels in these cells leads to a change of the electrochemical gradient causing a hyperpolarized or depolarised membrane potential, respectively.
To determine changes in the membrane potential of the cells we used the voltage sensitive dye DiBAC(4)3 (Molecular Probes) in a kinetic assay system using a fluorescent plate reader (Manning and Sontheimer, J. Neurosci, Meth., 91: 73-81 (1999). The anionic bis-oxonol DiBAC(4)3 is a voltage sensitive dye which partitions from the extracellular environment into the cell where it reversibly binds to intracellular proteins, a kinetic process depending on the membrane potential of the cell. At depolarised potentials (i.e. at a reduced K^+ efflux due to blocked K^+ channels) the dye accumulates in the cell leading to an increased fluorescence intensity, due to its increased fluorescence if bound to cellular proteins. At hyperpolarized potentials (i.e. at an increased K^+ efflux due to the opening of K^+ channels), the dye partitions out of the cell causing a decreased fluorescence intensity.
hSlo transfected CHO cells where maintained in DMEM supplemented with 10% FCS, 250 μg/ml Geneticin, 100 μg/ml Hygromycin, 1×HT-Supplement, and 1×Non-essential Amino Acids and cultured in a humidified CO2 incubator. After trypsination, cells where plated with a density of 5×10^4 cells per well on a clear 96-well plate and incubated for 24 h. Cells where washed once with PBS, once with PBS containing 20 mM HEPES (adjusted to pH 7.4 with NaOH) and 2 μM DIBAC(4)3 (DPBS-DiBAC solution). 180 μl of the dPBS-DiBAC solution was then added to the cells and the plate incubated for 30-60 min at 37° C. During this time the dye could partition into the cells and reach a certain steady-state distribution, depending on the resting membrane potential. Test and reference compounds were stored as DMSO stock solutions and diluted in dPBS-DiBAC solution to the desired concentration.
Fluorescence intensity (Ex.: 485 nm/Em.: 520 nm) of each well was detected in the plate reader (Fluostar, BMG) every 60 seconds. After recording the baseline fluorescence for 7 minutes, 20 μl test—and reference compounds were added and the fluorescence intensity was detected for additional 15 minutes. Background was subtracted, data values were normalized and expressed as a change in fluorescence intensity against time. The change in fluorescence intensity caused by the test compounds was evaluated, compared to the effect of the reference compound NS004, and the ratio was determined (see Table I).

T1 sequence (Q12791 1-1178 isoform Q12791-5): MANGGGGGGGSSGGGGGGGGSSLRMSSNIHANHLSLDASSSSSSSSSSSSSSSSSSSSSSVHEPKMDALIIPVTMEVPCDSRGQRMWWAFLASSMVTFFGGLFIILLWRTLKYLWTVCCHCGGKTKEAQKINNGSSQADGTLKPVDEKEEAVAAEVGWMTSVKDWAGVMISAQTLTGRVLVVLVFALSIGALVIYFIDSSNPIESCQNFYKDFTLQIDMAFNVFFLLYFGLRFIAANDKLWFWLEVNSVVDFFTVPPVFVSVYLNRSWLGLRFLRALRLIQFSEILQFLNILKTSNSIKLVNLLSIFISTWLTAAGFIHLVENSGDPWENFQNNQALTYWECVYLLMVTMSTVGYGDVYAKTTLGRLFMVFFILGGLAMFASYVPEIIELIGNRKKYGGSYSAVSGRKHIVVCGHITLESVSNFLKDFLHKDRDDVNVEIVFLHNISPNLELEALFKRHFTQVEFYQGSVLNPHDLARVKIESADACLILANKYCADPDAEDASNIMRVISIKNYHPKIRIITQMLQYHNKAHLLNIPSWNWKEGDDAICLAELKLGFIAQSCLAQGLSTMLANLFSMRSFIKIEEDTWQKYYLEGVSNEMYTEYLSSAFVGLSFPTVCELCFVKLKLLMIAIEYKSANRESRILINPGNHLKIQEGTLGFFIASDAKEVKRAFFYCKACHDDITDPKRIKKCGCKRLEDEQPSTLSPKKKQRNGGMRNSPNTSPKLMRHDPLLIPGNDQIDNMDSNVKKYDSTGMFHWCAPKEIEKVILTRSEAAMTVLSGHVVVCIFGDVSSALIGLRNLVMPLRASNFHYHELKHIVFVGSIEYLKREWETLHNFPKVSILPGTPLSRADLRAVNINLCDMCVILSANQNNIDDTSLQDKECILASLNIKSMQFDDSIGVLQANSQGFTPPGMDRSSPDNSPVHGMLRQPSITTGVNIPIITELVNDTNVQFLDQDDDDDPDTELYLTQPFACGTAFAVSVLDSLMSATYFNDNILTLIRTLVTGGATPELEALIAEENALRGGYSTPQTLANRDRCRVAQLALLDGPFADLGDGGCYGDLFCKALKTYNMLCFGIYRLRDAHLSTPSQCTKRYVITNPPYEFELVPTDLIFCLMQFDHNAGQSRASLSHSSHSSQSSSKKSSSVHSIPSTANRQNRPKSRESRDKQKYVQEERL
T1 sequence (Q28067 2-191 partner limits assumed): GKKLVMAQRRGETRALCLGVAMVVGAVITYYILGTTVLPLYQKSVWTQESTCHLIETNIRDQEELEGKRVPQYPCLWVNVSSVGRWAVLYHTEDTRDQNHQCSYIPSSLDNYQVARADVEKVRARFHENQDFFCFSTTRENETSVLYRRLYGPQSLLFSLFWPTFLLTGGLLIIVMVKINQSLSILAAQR

| Em effect: ratio of the compound effect compared to the maximal effect of NS004 | SMILES |
| --- | --- |
| + (0-1 = +) | Fc1cc(F)cc(CNc2cccc(NCc3ccc(-c4csnn4)cc3)c2)c1 [Compound 53, N-(3,5-difluorobenzyl)-N′-(4-[1,2,3]thiadiazol-4-yl-benzyl)-benzene-1,3-diamine] |
| + (0-1 = +) | COc1cccc(CNc2cccc(NCc3ccc(-c4csnn4)cc3)c2)c1 [Compound 59, N-(3-methoxybenzyl)-N′-(4-[1,2,3]thiadiazol-4-yl-benzyl)-benzene-1,3-diamine] |
| + (0-1 = +) | FC(F)(F)c1ccccc1CNc1cccc(NCc2ccc(-c3csnn3)cc2)c1 [Compound 61, N-(4-[1,2,3]thiadiazol-4-yl-benzyl)-N′-(2-tri-fluoromethylbenzyl)-benzene-1,3-diamine] |
| + (0-1 = +) | CS(=O)(=O)c1ccc(CNc2cccc(NCc3ccccc3C(F)(F)F)c2)cc1 [Compound 63, N-(4-methanesulfonylbenzyl)-N′-(2-tri-fluoromethylbenzyl)-benzene-1,3-diamine] |
| + (0-1 = +) | CS(=O)(=O)c1ccc(CNc2cccc(NCc3ccc(F)cc3Cl)c2)cc1 [Compound 65, N-(2-chloro-4-fluorobenzyl)-N′-(4-methanesulfonylbenzyl)-benzene-1,3-diamine] |
| + (0-1 = +) | N#Cc1cccc(CNc2cccc(NCc3ccc(C(F)(F)F)cc3)c2)c1 [Compound 68] |
| + (0-1 = +) | FC(F)(F)c1ccc(CNc2cc(NCc3ccc(C(F)(F)F)cc3)cc(C(F)(F)F)c2)cc1 [Compound 70, 5-trifloromethyl-N,N′-bis-(4-trifluoromethylbenzyl)-benzene-1,3-diamine] |
| + (0-1 = +) | N#Cc1ccccc1-c1ccc(CNc2cc(NCc3ccc(-c4ccccc4C#N)cc3)cc(C(F)(F)F)c2)cc1 [Compound 73] |
| + (0-1 = +) | CC(C)(C)c1ccc(CNc2cc(NCc3ccc(C(C)(C)C)cc3)cc(C(F)(F)F)c2)cc1 [Compound 77, N,N′-bis-(4-tert-butylbenzyl)-5-trifluoromethylbenzene-1,3-diamine] |
| + (0-1 = +) | CC(C)(C)c1ccc(CNc2cc(NCc3ccc(-c4csnn4)cc3)cc(C(F)(F)F)c2)cc1 [Compound 79, N-(4-tert-butylbenzyl)-N′-(4-[1,2,3]thiadiazol-4-yl-benzyl)-5-tri-fluoromethylbenzene-1,3-diamine] |
| + (0-1 = +) | CC(C)(C)c1ccc(CNc2cc(NCc3ccc(C(F)(F)F)cc3)cc(C(F)(F)F)c2)cc1 [Compound 84] |
| + (0-1 = +) | Cc1cc(NCc2ccc(S(C)(=O)=O)cc2)ccc1NCc1ccc(S(C)(=O)=O)cc1 [Compound 86] |
| + (0-1 = +) | Cc1cc(NCc2ccc(-c3csnn3)cc2)ccc1NCc1ccc(-c2csnn2)cc1 [Compound 87] |
| + (0-1 = +) | Clc1cc(NCc2ccc(-c3csnn3)cc2)ccc1NCc1ccc(-c2csnn2)cc1 [Compound 88] |
| + (0-1 = +) | Clc1cc(NCc2ccc(-c3csnn3)cc2)c(Cl)cc1NCc1ccc(-c2csnn2)cc1 [Compound 89] |

The remaining lines, values behind:

| SMILES | Em effect: ratio of the compound effect compared to the maximal effect of NS004 |
| --- | --- |
| O=[N+]([O-])c1ccc(CNc2cccc(NCc3ccc(F)cc3F)c2)o1 [Compound 54, N-(2,4-difluorobenzyl)-N′-(5-nitrofuran-2-ylmethyl)-benzene1,3-diamine] | + (0-1 = +) |
| Fc1ccc(CNc2cccc(NCc3cccc(Cl)c3)c2)c(F)c1 [Compound 55, N-(3-chlorobenzyl)-N′-(2,4-difluorobenzyl)-benzene-1,3-diamine] | + (0-1 = +) |
| COc1cccc(CNc2cccc(NCc3csc4ccc(Cl)cc34)c2)c1 [Compound 56, N-(5-chlorobenzo[b]thiophen-3-ylmethyl)-N′-(3-methoxybenzyl)-benzene-1,3diamine] | + (0-1 = +) |
| Fc1cccc(F)c1CNc1cccc(NCc2cccc(Cl)c2)c1 [Compound 57, N-(3-chlorobenzyl)-N′-(2,6-difluorobenzyl)-benzene-1,3-diamine] | + (0-1 = +) |
| COc1cccc(CNc2cccc(NCc3cccc(Cl)c3)c2)c1 [Compound 58, N-(3-chlorobenzyl)-N′-(3-methoxybenzyl)-benzene-1,3-diamine] | + (0-1 = +) |
| Fc1cccc(CNc2cccc(NCc3csc4ccc(Cl)cc34)c2)c1 [Compound 60] | + (0-1 = +) |
| FC(F)(F)c1ccccc1CNc1cccc(NCc2csc3ccc(Cl)cc23)c1 [Compound 62] | + (0-1 = +) |
| Fc1ccc(CNc2cccc(NCc3csc4ccc(Cl)cc34)c2)c(Cl)c1 [Compound 64, N-(5-chlorobenzo[b]thiophen-3-ylmethyl)-N′-(2-chloro-4-fluorobenzyl)-benzene-1,3-diamine] | + (0-1 = +) |
| Fc1ccc(CNc2cccc(NCc3cccc(Cl)c3)c2)c(Cl)c1 [Compound 66] | + (0-1 = +) |
| COc1cccc(CNc2cccc(NCc3ccc(F)cc3Cl)c2)c1 [Compound 67] | + (0-1 = +) |
| Fc1ccc(CNc2cc(NCc3ccc(F)cc3F)cc(C(F)(F)F)c2)c(F)c1 [Compound 69] | + (0-1 = +) |
| FC(F)(F)c1cc(NCc2ccccc2Cl)cc(NCc2ccccc2Cl)c1 [Compound 75] | + (0-1 = +) |
| COc1cccc(CNc2cc(NCc3cccc(OC)c3)cc(C(F)(F)F)c2)c1 [Compound 76, N,N′-bis-(3-methoxybenzyl)-5-trifluoromethylbenzene-1,3-diamine] | + (0-1 = +) |
| CC(C)(C)c1ccc(CNc2cc(NCc3csc4ccc(Cl)cc34)cc(C(F)(F)F)c2)cc1 [Compound 78] | + (0-1 = +) |
| Fc1cc(F)cc(CNc2cc(NCc3csc4ccc(Cl)cc34)cc(C(F)(F)F)c2)c1 [Compound 80] | + (0-1 = +) |
| COc1cccc(CNc2cc(NCc3csc4ccc(Cl)cc34)cc(C(F)(F)F)c2)c1 [Compound 81] | + (0-1 = +) |
| COc1cccc(CNc2cc(NCc3cccc(Cl)c3)cc(C(F)(F)F)c2)c1 [Compound 82] | + (0-1 = +) |
| COc1cccc(CNc2cc(NCc3ccc(C(F)(F)F)cc3)cc(C(F)(F)F)c2)c1 [Compound 83, N-(3-methoxybenzyl)-5-tri-fluoromethyl-N′-(4-tri-fluoromethylbenzyl)-benzene-1,3-diamine] | + (0-1 = +) |
| O=[N+]([O-])c1ccc(CNc2cc(NCc3ccccc3C(F)(F)F)cc(C(F)(F)F)c2)o1 [Compound 85] | + (0-1 = +) |
